Experimental data as given in patent US10392368B2, “Pyrazolo and triazolo bicyclic compounds as JAK kinase inhibitors” (THERAVANCE BIOPHARMA R&D IP, LLC, priority 2017, dated 2019).

What was measured:
JAK3 = target: T1, JAK3 (Homo sapiens, UniProt P52333); assay: Biochemical JAK3 kinase assay (LanthaScreen); parameters: GST; purchased Life Technologies
T1 sequence (P52333 1-1124): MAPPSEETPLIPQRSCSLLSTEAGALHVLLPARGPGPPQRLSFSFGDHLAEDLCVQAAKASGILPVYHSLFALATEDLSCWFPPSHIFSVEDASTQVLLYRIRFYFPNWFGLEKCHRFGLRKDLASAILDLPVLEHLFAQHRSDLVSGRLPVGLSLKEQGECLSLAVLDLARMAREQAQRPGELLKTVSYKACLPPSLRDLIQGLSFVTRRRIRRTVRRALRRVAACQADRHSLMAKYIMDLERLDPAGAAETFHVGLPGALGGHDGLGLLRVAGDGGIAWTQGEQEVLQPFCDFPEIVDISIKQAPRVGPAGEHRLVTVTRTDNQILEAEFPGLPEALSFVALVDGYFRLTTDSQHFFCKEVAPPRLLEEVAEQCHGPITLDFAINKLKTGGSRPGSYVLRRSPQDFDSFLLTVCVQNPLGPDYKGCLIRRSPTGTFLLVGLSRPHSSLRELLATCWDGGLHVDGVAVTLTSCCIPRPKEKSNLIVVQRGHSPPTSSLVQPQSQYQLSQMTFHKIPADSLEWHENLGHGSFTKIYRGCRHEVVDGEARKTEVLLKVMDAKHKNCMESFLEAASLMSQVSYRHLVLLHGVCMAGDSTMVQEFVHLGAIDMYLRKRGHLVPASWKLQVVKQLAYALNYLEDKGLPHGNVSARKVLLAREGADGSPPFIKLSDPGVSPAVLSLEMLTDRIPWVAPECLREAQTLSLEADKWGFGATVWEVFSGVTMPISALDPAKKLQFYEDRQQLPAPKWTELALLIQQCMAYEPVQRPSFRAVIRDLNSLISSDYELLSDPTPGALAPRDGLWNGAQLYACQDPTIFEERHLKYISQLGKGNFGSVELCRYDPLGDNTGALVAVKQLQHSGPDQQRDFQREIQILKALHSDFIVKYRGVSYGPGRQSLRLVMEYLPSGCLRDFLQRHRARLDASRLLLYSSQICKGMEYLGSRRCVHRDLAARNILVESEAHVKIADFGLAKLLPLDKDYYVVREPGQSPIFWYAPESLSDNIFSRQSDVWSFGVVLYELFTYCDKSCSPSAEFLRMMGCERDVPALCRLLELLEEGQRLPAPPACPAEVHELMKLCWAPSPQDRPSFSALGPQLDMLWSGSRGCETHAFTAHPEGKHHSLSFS
Outline: (§1)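 Compounds were preincubated with the GST-tagged kinase and GFP-labelled STAT1 peptide for one hour before ATP initiated a one-hour reaction at ambient temperature. Phosphorylation was quantified by TR-FRET with a Tb-labelled pTyr701 antibody. Ki values were derived from IC50 using Cheng-Prusoff.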

JAK2 = target: T2, JAK2 (Homo sapiens, UniProt O60674); assay: Biochemical JAK2 kinase assay (LanthaScreen)
T2 construct: GST; purchased Life Technologies
Outline: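 GST-tagged recombinant JAK2 pre-incubated 1 h at ambient temperature with compound and GFP-STAT1 peptide in HEPES pH 7.5/MgCl2 buffer, then ATP added for a 1 h reaction with 1% DMSO. TR-FRET read after EDTA and Tb-anti-pSTAT1 (pTyr701) addition; IC50 from 4-parameter fit, converted to pKi by Cheng-Prusoff.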

Tyk2 = target: T3, Tyk2 (Homo sapiens, UniProt P29597); assay: Biochemical Tyk2 kinase assay (LanthaScreen)
T3 construct: GST; purchased Life Technologies
Outline: as §1

JAK1 = target: T4, JAK1 (Homo sapiens, UniProt P23458); assay: Biochemical JAK1 kinase assay (LanthaScreen)
T4 construct: GST; purchased Life Technologies
Outline: as §1

[1] = tested on: IL-2 stimulated pSTAT5 in Tall-1 T cells; assay: Cellular JAK3 potency assay: inhibition of IL-2 stimulated pSTAT5 in Tall-1 T cells; assay type: cell-based, human
Outline: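 In human Tall-1 T cells, IL-2 (300 ng/ml final, 30 min) drives STAT5 phosphorylation after a 1 h compound pretreatment. Lysates are assayed for pSTAT5 by AlphaLisa, and IC50 derived from signal versus concentration is expressed as pIC50.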

[2] = selectivity: difference of pKi JAK3 and pKi JAK1
[3] = IL-2 stimulated pSTAT5 in Tall-1 T cells
[4] = selectivity JAK3 over JAK1, difference of pKi
[5] = IL-2 stimulated pSTAT5, Tall-1 T cells

T4 sequence (P23458 whole entry): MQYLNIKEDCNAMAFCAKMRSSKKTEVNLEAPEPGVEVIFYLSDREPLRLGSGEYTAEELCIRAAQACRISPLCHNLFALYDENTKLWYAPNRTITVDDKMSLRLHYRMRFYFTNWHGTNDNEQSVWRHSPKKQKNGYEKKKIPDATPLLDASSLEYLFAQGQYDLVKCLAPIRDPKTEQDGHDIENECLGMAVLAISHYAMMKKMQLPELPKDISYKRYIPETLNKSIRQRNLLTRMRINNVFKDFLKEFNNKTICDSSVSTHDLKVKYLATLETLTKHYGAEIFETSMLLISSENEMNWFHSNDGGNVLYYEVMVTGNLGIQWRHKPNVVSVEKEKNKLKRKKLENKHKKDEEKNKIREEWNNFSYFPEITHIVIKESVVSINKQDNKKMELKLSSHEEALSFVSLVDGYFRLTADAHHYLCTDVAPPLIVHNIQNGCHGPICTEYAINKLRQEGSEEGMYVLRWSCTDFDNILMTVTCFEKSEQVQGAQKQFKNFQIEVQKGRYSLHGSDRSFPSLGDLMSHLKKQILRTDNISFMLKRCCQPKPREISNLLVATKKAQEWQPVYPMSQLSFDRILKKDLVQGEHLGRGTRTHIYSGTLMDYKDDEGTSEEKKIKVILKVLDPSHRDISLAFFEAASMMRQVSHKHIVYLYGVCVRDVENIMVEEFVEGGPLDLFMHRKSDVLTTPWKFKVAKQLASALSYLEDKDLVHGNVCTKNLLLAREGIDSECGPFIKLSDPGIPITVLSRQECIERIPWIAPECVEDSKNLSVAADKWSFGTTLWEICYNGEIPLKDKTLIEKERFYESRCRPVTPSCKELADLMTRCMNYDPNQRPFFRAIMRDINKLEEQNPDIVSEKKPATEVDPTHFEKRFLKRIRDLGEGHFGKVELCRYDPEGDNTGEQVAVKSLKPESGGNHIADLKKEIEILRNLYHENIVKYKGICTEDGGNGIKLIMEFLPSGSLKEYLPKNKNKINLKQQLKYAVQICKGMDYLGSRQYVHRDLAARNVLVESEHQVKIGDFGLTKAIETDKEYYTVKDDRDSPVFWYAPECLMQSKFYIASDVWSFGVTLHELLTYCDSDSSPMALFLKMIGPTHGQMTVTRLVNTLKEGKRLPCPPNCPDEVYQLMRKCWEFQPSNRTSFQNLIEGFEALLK
T3 sequence (P29597 whole entry): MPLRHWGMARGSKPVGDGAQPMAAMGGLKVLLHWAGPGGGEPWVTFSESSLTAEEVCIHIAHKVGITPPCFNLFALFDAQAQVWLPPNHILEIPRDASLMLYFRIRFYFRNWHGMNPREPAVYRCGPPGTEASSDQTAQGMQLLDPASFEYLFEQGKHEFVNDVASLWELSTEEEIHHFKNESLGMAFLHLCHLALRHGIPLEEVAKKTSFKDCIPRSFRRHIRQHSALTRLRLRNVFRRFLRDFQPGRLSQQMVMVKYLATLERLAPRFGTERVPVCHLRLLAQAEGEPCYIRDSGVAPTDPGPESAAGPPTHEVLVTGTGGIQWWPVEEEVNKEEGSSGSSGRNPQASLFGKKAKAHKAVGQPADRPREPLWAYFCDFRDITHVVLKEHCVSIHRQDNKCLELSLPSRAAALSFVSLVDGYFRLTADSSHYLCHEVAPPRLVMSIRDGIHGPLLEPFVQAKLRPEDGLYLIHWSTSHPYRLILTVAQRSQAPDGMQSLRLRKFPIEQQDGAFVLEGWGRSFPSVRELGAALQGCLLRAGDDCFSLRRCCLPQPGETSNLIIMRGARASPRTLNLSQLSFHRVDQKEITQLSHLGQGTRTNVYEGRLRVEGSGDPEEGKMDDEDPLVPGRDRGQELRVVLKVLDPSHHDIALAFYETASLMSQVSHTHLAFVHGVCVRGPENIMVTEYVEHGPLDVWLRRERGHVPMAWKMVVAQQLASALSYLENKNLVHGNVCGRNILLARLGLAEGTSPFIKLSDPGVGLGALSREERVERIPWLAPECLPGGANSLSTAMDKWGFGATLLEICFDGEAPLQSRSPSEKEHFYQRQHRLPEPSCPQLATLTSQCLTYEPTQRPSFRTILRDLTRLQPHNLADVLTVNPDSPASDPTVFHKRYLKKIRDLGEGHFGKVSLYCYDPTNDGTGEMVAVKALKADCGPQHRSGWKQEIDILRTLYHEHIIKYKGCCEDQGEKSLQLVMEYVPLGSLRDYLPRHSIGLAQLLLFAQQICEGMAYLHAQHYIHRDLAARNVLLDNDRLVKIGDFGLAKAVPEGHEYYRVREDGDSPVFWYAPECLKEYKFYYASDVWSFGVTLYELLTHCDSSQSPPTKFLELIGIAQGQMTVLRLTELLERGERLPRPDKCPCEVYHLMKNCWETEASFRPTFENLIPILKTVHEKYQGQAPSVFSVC
T2 sequence (O60674 whole entry): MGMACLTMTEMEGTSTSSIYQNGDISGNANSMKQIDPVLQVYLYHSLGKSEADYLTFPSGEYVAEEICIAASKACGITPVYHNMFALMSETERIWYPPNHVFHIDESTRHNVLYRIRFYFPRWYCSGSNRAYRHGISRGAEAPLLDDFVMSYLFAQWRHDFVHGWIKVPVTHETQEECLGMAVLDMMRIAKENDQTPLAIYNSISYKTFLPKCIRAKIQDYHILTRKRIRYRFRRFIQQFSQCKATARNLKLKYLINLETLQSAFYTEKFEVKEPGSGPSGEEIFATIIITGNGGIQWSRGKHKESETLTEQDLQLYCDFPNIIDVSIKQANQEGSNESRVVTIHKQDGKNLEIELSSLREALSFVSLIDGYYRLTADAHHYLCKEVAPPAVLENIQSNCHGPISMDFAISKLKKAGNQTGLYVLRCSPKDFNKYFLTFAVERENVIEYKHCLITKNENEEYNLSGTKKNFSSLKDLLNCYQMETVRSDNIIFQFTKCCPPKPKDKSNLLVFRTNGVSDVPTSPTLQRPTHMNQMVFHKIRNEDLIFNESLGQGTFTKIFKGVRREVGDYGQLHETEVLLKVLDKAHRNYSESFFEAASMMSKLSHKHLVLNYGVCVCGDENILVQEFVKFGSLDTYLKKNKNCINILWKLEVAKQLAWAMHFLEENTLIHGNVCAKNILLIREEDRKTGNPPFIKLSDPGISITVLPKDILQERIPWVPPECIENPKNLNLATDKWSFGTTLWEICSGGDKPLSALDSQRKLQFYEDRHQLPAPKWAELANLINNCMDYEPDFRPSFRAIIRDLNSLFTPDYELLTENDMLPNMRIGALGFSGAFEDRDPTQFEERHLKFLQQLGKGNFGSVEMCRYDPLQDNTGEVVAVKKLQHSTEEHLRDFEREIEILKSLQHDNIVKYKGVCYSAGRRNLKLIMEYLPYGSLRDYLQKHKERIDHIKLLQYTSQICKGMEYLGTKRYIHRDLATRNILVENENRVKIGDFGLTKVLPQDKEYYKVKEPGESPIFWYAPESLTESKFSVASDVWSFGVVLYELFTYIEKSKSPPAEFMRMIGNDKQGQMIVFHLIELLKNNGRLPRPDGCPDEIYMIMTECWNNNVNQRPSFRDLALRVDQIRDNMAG

SMILES | JAK 3 (pKi) (JAK3) | JAK3 (pKi)-JAK1 (pKi) (JAK3; [2]) | JAK 2 (pKi) (JAK2) | Tyk 2 (pKi) (Tyk2) | JAK 1 (pKi) (JAK1) | Tall-1 (pIC50) [1, 3] | JAK3 (pKi)-JAK1 (pKi) (JAK3; [4]) | Tall-1 (pIC50) [1, 5]
CN(C)C/C=C/C(=O)N1CC(Oc2cc(-c3ccc(O)c(Cl)c3)cc3[nH]ncc23)(C(F)F)C1 [Compound 5-16] | A (a pKi value≥10 (Ki≤0.1 nM)) | A (a value of 3 or above) | 6 | E (a pKi value of 7 or below (Ki of 100 nM or above)) | E (a pKi value of 7 or below (Ki of 100 nM or above)) | A (a pIC50 value≥7.5 (IC50≤32 nM)) |  | 
CN(C)C/C=C/C(=O)N1CC(Oc2cc(-c3ccc(O)c(F)c3)cc3[nH]ncc23)(C(F)F)C1 [Compound 5-17] | B (a pKi value between 9 and 10 (Ki between 1 nM and 0.1 nM)) | A (a value of 3 or above) | E (a pKi value of 7 or below (Ki of 100 nM or above)) | E (a pKi value of 7 or below (Ki of 100 nM or above)) | E (a pKi value of 7 or below (Ki of 100 nM or above)) | A (a pIC50 value≥7.5 (IC50≤32 nM)) |  | 
CN(C)C/C=C/C(=O)N1CC(C)(Oc2cc(-c3ccc(O)c(Cl)c3)cc3[nH]ncc23)C1 [Compound 5-18] | A (a pKi value≥10 (Ki≤0.1 nM)) |  | E (a pKi value of 7 or below (Ki of 100 nM or above)) | E (a pKi value of 7 or below (Ki of 100 nM or above)) | E (a pKi value of 7 or below (Ki of 100 nM or above)) |  | A (a value of 3 or above) | A (a pIC50 value≥7.5 (IC50≤32 nM))
CN(C)C/C=C/C(=O)N1CC(C)(Oc2cc(-c3ccc(O)c(F)c3)cc3[nH]ncc23)C1 [Compound 5-19] | B (a pKi value between 9 and 10 (Ki between 1 nM and 0.1 nM)) |  | E (a pKi value of 7 or below (Ki of 100 nM or above)) | E (a pKi value of 7 or below (Ki of 100 nM or above)) | E (a pKi value of 7 or below (Ki of 100 nM or above)) |  | A (a value of 3 or above) | B (a pIC50 value between 6.7 (included) and 7.5 (IC50 between 200 nM and 32 nM))
C=CC(=O)N1CC(Oc2cc(-c3ccc(O)c(Cl)c3)cc3[nH]ncc23)(C(F)F)C1 [Compound 5-21] | B (a pKi value between 9 and 10 (Ki between 1 nM and 0.1 nM)) |  | E (a pKi value of 7 or below (Ki of 100 nM or above)) | E (a pKi value of 7 or below (Ki of 100 nM or above)) | E (a pKi value of 7 or below (Ki of 100 nM or above)) |  | A (a value of 3 or above) | A (a pIC50 value≥7.5 (IC50≤32 nM))
C=CC(=O)N1CC(Oc2cc(-c3ccc(O)c(F)c3)cc3[nH]ncc23)(C(F)F)C1 [Compound 5-22] | B (a pKi value between 9 and 10 (Ki between 1 nM and 0.1 nM)) |  | E (a pKi value of 7 or below (Ki of 100 nM or above)) | E (a pKi value of 7 or below (Ki of 100 nM or above)) | E (a pKi value of 7 or below (Ki of 100 nM or above)) |  | A (a value of 3 or above) | B (a pIC50 value between 6.7 (included) and 7.5 (IC50 between 200 nM and 32 nM))
C=CC(=O)N1CC(C)(Oc2cc(-c3ccc(O)c(Cl)c3)cc3[nH]ncc23)C1 [Compound 5-23] | B (a pKi value between 9 and 10 (Ki between 1 nM and 0.1 nM)) |  | E (a pKi value of 7 or below (Ki of 100 nM or above)) | E (a pKi value of 7 or below (Ki of 100 nM or above)) | E (a pKi value of 7 or below (Ki of 100 nM or above)) |  | A (a value of 3 or above) | B (a pIC50 value between 6.7 (included) and 7.5 (IC50 between 200 nM and 32 nM))
